Assay results: patent publication US11083729B2, “Methods of treating cancer with small molecule NF-κB inhibitors” (ImmuneTarget, Inc., priority 2017, dated 2021)

Assays:
HepG2 [1] = experiment: CellTiter-Glo IG50, Example 8, HepG2; type: cell-based; conditions: Homo sapiens, HepG2, 72 hours
Experimental: (§1) Various pancreatic, liver, colon, breast, and stomach cancer cell lines were exposed to the NF-κB inhibitors of the present invention, including, for example, IT-839, IT-843, IT-848, and IT-878, and assessed for IG50 in the CellTiter Glo 2.0 assay.
(§2) The cells were cultured in an atmosphere of 37° C., 5% CO2 and 95% humidity. All culture media and FBS were purchased from GIBCO, Hyclone or Sigma, USA. The media used for cell culture is described in the table below.
(§3) The cells were harvested during the logarithmic growth period and counted. Cell concentrations were adjusted to the appropriate number in appropriate medium and 90 μl cell suspensions were added to 96-well plates. When cells were added, the plates were shaken gently to distribute the cells evenly. Cells were incubated at 37° C. and 5% CO2.
(§4) 3× serial dilutions of test compound stock solutions with respective solvents were prepared. The stock solutions were diluted with culture medium to generate 10× working solutions of the test compounds. 10 μl of the 10× test compound solutions were added to each well in triplicate for each concentration. Plates were incubated for 72 hours in a humidified incubator at 37° C. and 5% CO2.
(§5) CellTiter-Glo (CTG) solution was thawed and equilibrated to room temperature. 50 μl of CTG were added to each well and the contents were mixed for 2 minutes on a plate shaker. Cells were incubated for 10 minutes before luminescence signal was recorded using Envision.
(§6) Cell viability was plotted with GraphPad Prism version 5 and the IG50 was calculated for each cell line. The graphical curves were fitted using a nonlinear regression model with a sigmoidal dose response. IG50 is the concentration of test drug where 100×T/C=50 (the optical density of the test well after a 3-day period of exposure to test drug is T; the control optical density is C).

PLC/PRF/5 [2] = experiment: CellTiter-Glo IG50, Example 10 HCC panel, PLC/PRF/5; type: cell-based; conditions: Homo sapiens, PLC/PRF/5, 72 hours
Experimental: as §3, §4, §5, §6, §2
(§7) Following the cell culture protocol and data analysis method described in Example 8, the following IG50 results (in μM) were observed: […]

SNU878 [3] = experiment: CellTiter-Glo IG50, Example 9 HCC panel, SNU878; type: cell-based; conditions: SNU878, 72 hours
Experimental: as §3, §4, §5, §6, §2
(§8) Following the cell culture protocol and data analysis methods described in Example 8, the following IG50 results (in μM) were observed: […]

HUH7 [4] = experiment: CellTiter-Glo IG50, Example 9 HCC panel, HUH7; type: cell-based; conditions: Homo sapiens, Huh-7, HUH7, 72 hours
Experimental: as §3, §4, §5, §6, §2, §8

PBMC [5] = experiment: CellTiter-Glo IG50, Example 10 HCC panel, PBMC; type: cell-based; conditions: 72 hours
Experimental: as §3, §4, §5, §6, §2, §7

PLC/PRF/5 [6] = experiment: CellTiter-Glo IG50, Example 8, PLC/PRF/5; type: cell-based; conditions: Homo sapiens, PLC/PRF/5, 72 hours
Experimental: as §1, §2, §3, §4, §5, §6

Hep3B [7] = experiment: CellTiter-Glo IG50, Example 8, Hep3B; type: cell-based; conditions: Homo sapiens, 72 hours
Experimental: as §1, §2, §3, §4, §5, §6

HepG2 [8] = experiment: CellTiter-Glo IG50, Example 9 HCC panel, HepG2; type: cell-based; conditions: Homo sapiens, HepG2, 72 hours
Experimental: as §3, §4, §5, §6, §2, §8

Hep3B [9] = experiment: CellTiter-Glo IG50, Example 10 HCC panel, Hep3B; type: cell-based; conditions: Homo sapiens, 72 hours
Experimental: as §3, §4, §5, §6, §2, §7

HUH7 [10] = experiment: CellTiter-Glo IG50, Example 10 HCC panel, HUH7; type: cell-based; conditions: Homo sapiens, Huh-7, HUH7, 72 hours
Experimental: as §3, §4, §5, §6, §2, §7

PBMC [11] = experiment: CellTiter-Glo IG50, Example 9 HCC panel, PBMC; type: cell-based; conditions: 72 hours
Experimental: as §3, §4, §5, §6, §2, §8

PLC/PRF/5 [12] = experiment: CellTiter-Glo IG50, Example 9 HCC panel, PLC/PRF/5; type: cell-based; conditions: Homo sapiens, PLC/PRF/5, 72 hours
Experimental: as §3, §4, §5, §6, §2, §8

HepG2 [13] = experiment: CellTiter-Glo IG50, Example 10 HCC panel, HepG2; type: cell-based; conditions: Homo sapiens, HepG2, 72 hours
Experimental: as §3, §4, §5, §6, §2, §7

JHH5 [14] = experiment: CellTiter-Glo IG50, Example 10 HCC panel, JHH5; type: cell-based; conditions: JHH5, 72 hours
Experimental: as §3, §4, §5, §6, §2, §7

SNU878 [15] = experiment: CellTiter-Glo IG50, Example 10 HCC panel, SNU878; type: cell-based; conditions: SNU878, 72 hours
Experimental: as §3, §4, §5, §6, §2, §7

JHH5 [16] = experiment: CellTiter-Glo IG50, Example 9 HCC panel, JHH5; type: cell-based; conditions: JHH5, 72 hours
Experimental: as §3, §4, §5, §6, §2, §8

Hep3B [17] = experiment: CellTiter-Glo IG50, Example 9 HCC panel, Hep3B; type: cell-based; conditions: Homo sapiens, 72 hours
Experimental: as §3, §4, §5, §6, §2, §8

c-Rel protein = target: T1, c-Rel protein (Homo sapiens, UniProt Q04864); experiment: Electrophoretic Mobility Shift Assay (EMSA), c-Rel binding to CD28RE oligonucleotide; conditions: 10 nM c-Rel protein
T1 sequence (Q04864 1-619): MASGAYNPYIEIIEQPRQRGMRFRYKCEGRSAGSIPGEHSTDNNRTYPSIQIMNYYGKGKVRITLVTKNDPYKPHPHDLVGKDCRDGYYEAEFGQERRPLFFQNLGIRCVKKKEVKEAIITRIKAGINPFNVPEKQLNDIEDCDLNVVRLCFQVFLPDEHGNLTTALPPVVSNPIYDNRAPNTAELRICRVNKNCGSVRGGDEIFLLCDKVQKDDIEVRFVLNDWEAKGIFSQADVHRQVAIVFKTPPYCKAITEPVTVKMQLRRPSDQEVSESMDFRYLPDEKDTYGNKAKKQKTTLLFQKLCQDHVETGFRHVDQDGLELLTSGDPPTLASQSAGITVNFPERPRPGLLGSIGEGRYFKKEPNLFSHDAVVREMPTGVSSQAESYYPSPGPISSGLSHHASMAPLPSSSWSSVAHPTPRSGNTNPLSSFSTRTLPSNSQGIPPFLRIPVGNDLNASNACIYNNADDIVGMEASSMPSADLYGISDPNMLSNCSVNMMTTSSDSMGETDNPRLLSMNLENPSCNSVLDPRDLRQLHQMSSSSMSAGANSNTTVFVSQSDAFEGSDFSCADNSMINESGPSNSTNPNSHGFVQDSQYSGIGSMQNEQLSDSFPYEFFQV
Experimental: DNA binding reaction (20 μL) was carried out in 1×DNA Binding Buffer (10 mM Tris, 40 mM NaCl, 1 mM EDTA, 4% glycerol) with 10 nM c-Rel protein and 0.5 ng phosphor-labeled CD28RE oligonucleotide for 10 minutes at room temperature in 96-well plates. Test compounds, in serial dilutions, were added into each well, and further incubated for 15 minutes before loading onto native 5% polyacrylamide gel. Electrophoresis proceeded for 2.5 hours at 160V. Radioactive signals were quantified using Phospho-Imager. IC50 of compounds of example 1 to 75 were determined by quantifying the intensity of Rel/NF-κB inhibition in EMSA using phospho-imager. An example of EMSA data of the present invention is shown for compound 6 in FIG. 2.

NF-κB = NF-κB GFP assay in NFκB/Jurkat/GFP transcriptional reporter cells stimulated with TNF-α; type: cell-based; conditions: Homo sapiens, TNF-α 5 ng/ml, 24 hours, read-out: NF-KB GFP IC50
Experimental: NFκB/Jurkat/GFP transcriptional reporter cell line was obtained from SBI System Biosciences. NF-κB/Jurkat/GFP™ Reporter cells (5×10^5 cells) were plated at a concentration of 1 million cells/ml into each well of a 24-well plate. TNF-α (5 ng/ml) was added. Compounds were added via serial dilutions to corresponding wells. After 24 hours, 100 μl of the cells were transferred to a well of a Costar® UV plate (96 well, No lid, w/UV Transparent Flat Bottom, Corning, N.Y., Cat #3635) and the intensity of GFP fluorescence was measured (Excitation 485+/−20, Emission 528+/−20) in a Synergy™ HT Multi-Detection Microplate Reader (BioTech, Winooski, Vt.). The intensities of GFP measured were plotted against the […].

T47D = experiment: CellTiter-Glo IG50, Example 8, T47D; type: cell-based; conditions: Homo sapiens, 72 hours
Experimental: as §1, §2, §3, §4, §5, §6

PANC-1 = experiment: CellTiter-Glo IG50, Example 8, PANC-1; type: cell-based; conditions: Homo sapiens, PANC-1, 72 hours
Experimental: as §1, §2, §3, §4, §5, §6

MIAPACA-2 = experiment: CellTiter-Glo IG50, Example 8, MIAPACA-2; type: cell-based; conditions: Homo sapiens, MIA PaCa-2, MIAPACA-2, 72 hours
Experimental: as §1, §2, §3, §4, §5, §6

Capan-1 = experiment: CellTiter-Glo IG50, Example 8, Capan-1; type: cell-based; conditions: Homo sapiens, Capan-1, 72 hours
Experimental: as §1, §2, §3, §4, §5, §6

MCF-7 = experiment: CellTiter-Glo IG50, Example 8, MCF-7; type: cell-based; conditions: Homo sapiens, MCF7, MCF-7, 72 hours
Experimental: as §1, §2, §3, §4, §5, §6

KATO III = experiment: CellTiter-Glo IG50, Example 8, KATO III; type: cell-based; conditions: Homo sapiens, 72 hours
Experimental: as §1, §2, §3, §4, §5, §6

HCT116 = experiment: CellTiter-Glo IG50, Example 8, HCT116; type: cell-based; conditions: Homo sapiens, HCT-116, HCT116, 72 hours
Experimental: as §1, §2, §3, §4, §5, §6

MKN45 = experiment: CellTiter-Glo IG50, Example 8, MKN45; type: cell-based; conditions: Homo sapiens, MKN-45, MKN45, 72 hours
Experimental: as §1, §2, §3, §4, §5, §6

LoVo = experiment: CellTiter-Glo IG50, Example 8, LoVo; type: cell-based; conditions: Homo sapiens, 72 hours
Experimental: as §1, §2, §3, §4, §5, §6

MDA-MB-231 = experiment: CellTiter-Glo IG50, Example 8, MDA-MB-231; type: cell-based; conditions: Homo sapiens, MDA-MB-231, 72 hours
Experimental: as §1, §2, §3, §4, §5, §6

HT-29 = experiment: CellTiter-Glo IG50, Example 8, HT-29; type: cell-based; conditions: Homo sapiens, HT-29, 72 hours
Experimental: as §1, §2, §3, §4, §5, §6

AGS = experiment: CellTiter-Glo IG50, Example 8, AGS; type: cell-based; conditions: Homo sapiens, 72 hours
Experimental: as §1, §2, §3, §4, §5, §6

IC50 (HepG2 [1]) [µM] | IC50 (PLC/PRF/5 [2]) [µM] | IC50 (SNU878 [3]) [µM] | IC50 (HUH7 [4]) [µM] | IC50 (Hep3B [7]) [µM] | IC50 (HepG2 [8]) [µM] | IC50 (Hep3B [9]) [µM] | IC50 (HUH7 [10]) [µM] | IC50 (PLC/PRF/5 [12]) [µM] | IC50 (HepG2 [13]) [µM] | IC50 (JHH5 [14]) [µM] | IC50 (SNU878 [15]) [µM] | IC50 (JHH5 [16]) [µM] | IC50 (Hep3B [17]) [µM] | IC50 (c-Rel protein) [µM] | IC50 (NF-κB) [µM] | Compound | IC50 (PBMC [5]) [µM] | IC50 (PLC/PRF/5 [6]) [µM] | IC50 (PBMC [11]) [µM] | other results
5.14 | 10.1 | 12.7 | 6.57 | 7.49 | 3.15 | 6.42 | 5.14 | 10.8 | 4.37 | 7.13 | 10.6 | 3.21 | 7.57 | – | – | CNC(=O)c1cc(Oc2ccc(NC(=O)Nc3ccc(Cl)c(C(F)(F)F)c3)cc2)ccn1 [Sorafenib, sorafenib, reference compound] | 14.4 | 10.8 | 19.5 | –
– | – | – | – | – | – | – | – | – | – | – | – | – | – | < 5 | < 20 | O=C(O)CCCCOc1ccc2cc3c(=O)[nH]c(=O)nc-3oc2c1Cl [compound 54] | – | – | – | –
6.7 | > 16 | 14.6 | 4.25 | 2.43 | 5.84 | 6.09 | 7.72 | > 16 | 9.95 | 13.4 | > 16 | 12.9 | 3.51 | – | – | CCCCCCOc1ccc2cc3c(=O)[nH]c(=O)nc-3oc2c1Cl [IT-848] | 3.63 | > 16 | 1.19 | IC50 (T47D): 6.14 µM; IC50 (PANC-1): 9.88 µM; IC50 (MIAPACA-2): > 16 µM; IC50 (Capan-1): > 16 µM; IC50 (MCF-7): 5.19 µM; IC50 (KATO III): > 16 µM; IC50 (HCT116): > 16 µM; IC50 (MKN45): > 16 µM; IC50 (LoVo): 5.07 µM; IC50 (MDA-MB-231): 2.35 µM; IC50 (HT-29): > 16 µM; IC50 (AGS): 7.67 µM
– | – | – | – | – | – | – | – | – | – | – | – | – | – | < 1 | 8.2 | COc1cc(OC)c2cc3c(=O)[nH]c(=O)nc-3oc2c1 [compound 14, 6,8-dimethoxy-2H-chromeno[2,3-d]pyrimidine-2,4(3H)-dione] | – | – | – | –
